The values below come from patent publication US10316035B2, “Triazolopyridine inhibitors of myeloperoxidase” (BRISTOL-MYERS SQUIBB COMPANY, priority 2015, dated 2019).

Structures are written as SMILES.

The target of one test is T1, myeloperoxidase (MPO) (Homo sapiens, UniProt P05164).
T1 sequence (P05164 49-745): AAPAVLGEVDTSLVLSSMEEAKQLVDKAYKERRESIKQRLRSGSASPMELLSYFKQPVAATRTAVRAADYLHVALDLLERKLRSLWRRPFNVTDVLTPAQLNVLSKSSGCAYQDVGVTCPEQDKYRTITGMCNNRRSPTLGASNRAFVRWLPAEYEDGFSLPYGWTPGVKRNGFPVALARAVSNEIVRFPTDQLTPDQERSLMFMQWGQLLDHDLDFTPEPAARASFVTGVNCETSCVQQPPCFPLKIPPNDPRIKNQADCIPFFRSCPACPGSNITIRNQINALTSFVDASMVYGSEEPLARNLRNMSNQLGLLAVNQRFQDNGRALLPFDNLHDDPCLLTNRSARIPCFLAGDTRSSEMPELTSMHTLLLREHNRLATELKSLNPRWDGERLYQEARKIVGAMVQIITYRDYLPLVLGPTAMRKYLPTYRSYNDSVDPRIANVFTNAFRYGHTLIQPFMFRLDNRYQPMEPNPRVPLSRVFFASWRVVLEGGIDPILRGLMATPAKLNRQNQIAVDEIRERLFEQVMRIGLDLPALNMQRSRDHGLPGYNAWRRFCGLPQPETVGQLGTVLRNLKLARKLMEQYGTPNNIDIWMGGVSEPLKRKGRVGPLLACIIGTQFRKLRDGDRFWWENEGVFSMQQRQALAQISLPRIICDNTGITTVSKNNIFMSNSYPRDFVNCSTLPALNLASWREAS
Kind of test: MPO peroxidation assay (Amplex Red assay). In kind it is biochemical.
Conditions: not given
How it is done: MPO Peroxidation Assay (Amplex Red Assay)
MPO peroxidation activity was measured in 100 mM KPi (pH 7.4) by utilizing the non-fluorescent reagent Amplex Red (Invitrogen catalog # A12222) which can be oxidized to the highly fluorescent resorufin. Amplex Red is oxidized by the peroxidase action of MPO to resorufin. Reactions were carried out in 50 μL total volume by adding a 25 μL mixture of 200 pM myeloperoxidase and 40 nM H2O2(Sigma #349887) to 100 nL inhibitor in 100% DMSO in a 384 well Perkin Elmer Optiplate. Enzyme and compound were preincubated for ten minutes at room temperature.
After the ten minute preincubation, 25 μL of an Amplex Red mixture containing 200 μM Amplex Red and 10 mM H2O2 was added to the plate. Kinetic determinations were carried out immediately on a Perkin Elmer Envision (15 minute kinetic read, Ex: 535 nm, Em: 590 nm).
IC50 values were calculated by determining the slope of the linear portion of the kinetic trace ([…]), and using that calculated slope to determine % inhibition occurring at each concentration of inhibitor using the following equation:
[formula] where A=minimal Y value (activity level of inhibited sample), B=maximal Y value (activity level of uninhibited sample), C=Log IC50, D=Hill Slope, x=concentration of inhibitor. MPO Chlorination Assay (APF Assay)
For orientation: IC50 means the point on the concentration scale where inhibition reaches its midpoint. Turning to `Nc1cc(OCc2ccccc2F)c2nn[nH]c2n1` [Example 55, 7-(2-Fluorobenzyloxy)-3H-[1,2,3]triazolo[4,5-b]pyridin-5-amine], the IC50 fell in the range of 1 to 100 nM. The same measure, in the same setting: to `Cc1c(COc2cc(N)nc3[nH]nnc23)cccc1-c1cccc(F)c1` [Example 68, 7-((3′-Fluoro-2-methylbiphenyl-3-yl)methoxy)-3H-[1,2,3]triazolo[4,5-b]pyridin-5-amine] belongs 1 to 100 nM; to `Nc1cc(OCc2cc(-c3cccc(F)c3)ccc2Cl)c2nn[nH]c2n1` [Example 70, 7-((4-Chloro-3′-fluorobiphenyl-3-yl)methoxy)-3H-[1,2,3]triazolo[4,5-b]pyridin-5-amine], 1 to 100 nM; to `Cn1cc(-c2cccc(COc3cc(N)nc4[nH]nnc34)c2)cn1` [Example 77, 7-(3-(1-Methyl-1H-pyrazol-4-yl)benzyloxy)-3H-[1,2,3]triazolo[4,5-b]pyridin-5-amine], 1 to 100 nM.

In turn, `Cc1c(COc2cc(N)nc3[nH]nnc23)cccc1-c1ccn(C)n1` [Example 81, 7-(2-Methyl-3-(1-methyl-1H-pyrazol-3-yl)benzyloxy)-3H-[1,2,3]triazolo[4,5-b]pyridin-5-amine] came in with an IC50 of 1 to 100 nM.

The same test, now with this note: MPO peroxidation, potency range class; read-out: Amplex Red IC50.
For `COC(=O)c1ccc(F)c(COc2cc(N)nc3[nH]nnc23)c1` [Example 41, Methyl 3-((5-amino-3H-[1,2,3]triazolo[4,5-b]pyridin-7-yloxy)methyl)-4-fluorobenzoate], the IC50 fell in the range of 1 to 100 nM. Still for that read-out and setting: with `CS(=O)(=O)c1cc(Cl)cc(COc2cc(N)nc3[nH]nnc23)c1` [Example 44, 7-(3-Chloro-5-(methylsulfonyl)benzyloxy)-3H-[1,2,3]triazolo[4,5-b]pyridin-5-amine] the figure was 101 to 999 nM; with `Nc1cc(OCc2cccc(-n3cnc(C(F)F)n3)c2)c2nn[nH]c2n1` [Example 45, 7-(3-(3-(Difluoromethyl)-1H-1,2,4-triazol-1-yl)benzyloxy)-3H-[1,2,3]triazolo[4,5-b]pyridin-5-amine], 1 to 100 nM; with `CN(C)S(=O)(=O)c1ccccc1-c1ccc(COc2cc(N)nc3[nH]nnc23)c(Cl)c1` [Example 46, 4′-((5-Amino-3H-[1,2,3]triazolo[4,5-b]pyridin-7-yloxy)methyl)-3′-chloro-N,N-dimethylbiphenyl-2-sulfonamide], 1 to 100 nM. Still for that read-out and setting: to `Nc1cc(OCc2cc(C(=O)NCc3ccccc3)ccc2F)c2nn[nH]c2n1` [Example 47, 3-((5-Amino-3H-[1,2,3]triazolo[4,5-b]pyridin-7-yloxy)methyl)-N-benzyl-4-fluorobenzamide] belongs 1 to 100 nM; to `Nc1cc(OCc2cc(C(=O)NC3CC3)ccc2F)c2nn[nH]c2n1` [Example 48, 3-((5-Amino-3H-[1,2,3]triazolo[4,5-b]pyridin-7-yloxy)methyl)-N-cyclopropyl-4-fluorobenzamide], 1 to 100 nM; to `Nc1cc(OCc2cc(C(=O)Nc3cccc(Cl)c3)ccc2F)c2nn[nH]c2n1` [Example 49, 3-((5-Amino-3H-[1,2,3]triazolo[4,5-b]pyridin-7-yloxy)methyl)-N-(3-chlorophenyl)-4-fluorobenzamide], 1 to 100 nM.

On to `Nc1cc(OCC2CCc3ccccc3C2)c2nn[nH]c2n1` (stereo not drawn) [Example 51, 7-((1,2,3,4-Tetrahydronaphthalen-2-yl)methoxy)-3H-[1,2,3]triazolo[4,5-b]pyridin-5-amine], for which the IC50 was in the range of 101 to 999 nM. The same measure, in the same setting: to `CC1CC(c2ccccc2)CCC1COc1cc(N)nc2[nH]nnc12` (stereo not drawn) [Example 53, 7-((2-Methyl-4-phenylcyclohexyl)methoxy)-3H-[1,2,3]triazolo[4,5-b]pyridin-5-amine] belongs 101 to 999 nM. Still for that read-out and setting: with `NC(=O)c1cccc(COc2cc(N)nc3[nH]nnc23)c1` [Example 56, 3-((5-Amino-3H-[1,2,3]triazolo[4,5-b]pyridin-7-yloxy)methyl)benzamide] the figure was 101 to 999 nM.

With `COc1ccc(Br)cc1COc1cc(N)nc2[nH]nnc12` [Example 58, 7-(5-Bromo-2-methoxybenzyloxy)-3H-[1,2,3]triazolo[4,5-b]pyridin-5-amine], the IC50 lay within 1 to 100 nM. The same measure, in the same setting: to `COc1c(Br)cccc1COc1cc(N)nc2[nH]nnc12` [Example 59, 7-(3-Bromo-2-methoxybenzyloxy)-3H-[1,2,3]triazolo[4,5-b]pyridin-5-amine] belongs 1 to 100 nM; to `Cc1c(Br)cccc1COc1cc(N)nc2[nH]nnc12` [Example 60, 7-(3-Bromo-2-methylbenzyloxy)-3H-[1,2,3]triazolo[4,5-b]pyridin-5-amine], 1 to 100 nM.

Regarding `Nc1cc(OCc2cccc(Br)c2F)c2nn[nH]c2n1` [Example 62, 7-(3-Bromo-2-fluorobenzyloxy)-3H-[1,2,3]triazolo[4,5-b]pyridin-5-amine], the IC50 is 1 to 100 nM. Same read-out and setting: to `Cc1c(COc2cc(N)nc3[nH]nnc23)cccc1-c1cncc(F)c1` [Example 63, 7-(3-(5-Fluoropyridin-3-yl)-2-methylbenzyloxy)-3H-[1,2,3]triazolo[4,5-b]pyridin-5-amine] belongs 1 to 100 nM. The same measure, in the same setting: to `COc1ccc(-c2cccc(COc3cc(N)nc4[nH]nnc34)c2)c(F)c1` [Example 64, 7-((2′-Fluoro-4′-methoxybiphenyl-3-yl)methoxy)-3H-[1,2,3]triazolo[4,5-b]pyridin-5-amine] belongs 101 to 999 nM. Regarding `Cc1ccc(-c2cccc(F)c2)cc1COc1cc(N)nc2[nH]nnc12` [Example 65, 7-((3′-Fluoro-4-methylbiphenyl-3-yl)methoxy)-3H-[1,2,3]triazolo[4,5-b]pyridin-5-amine], the IC50 lay within 1 to 100 nM. On the same count and under the same terms, with `COc1ccc(-c2cccc(F)c2)cc1COc1cc(N)nc2[nH]nnc12` [Example 66, 7-((3′-Fluoro-4-methoxybiphenyl-3-yl)methoxy)-3H-[1,2,3]triazolo[4,5-b]pyridin-5-amine] the figure was 1 to 100 nM; with `COc1c(COc2cc(N)nc3[nH]nnc23)cccc1-c1cccc(F)c1` [Example 67, 7-((3′-Fluoro-2-methoxybiphenyl-3-yl)methoxy)-3H-[1,2,3]triazolo[4,5-b]pyridin-5-amine], 101 to 999 nM; with `Cc1c(COc2cc(N)nc3[nH]nnc23)cccc1-c1ccccc1` [Example 69, 7-((2-Methylbiphenyl-3-yl)methoxy)-3H-[1,2,3]triazolo[4,5-b]pyridin-5-amine], 1 to 100 nM. The same measure, in the same setting: to `Nc1cc(OCc2cc(-c3cccc(F)c3)ccc2F)c2nn[nH]c2n1` [Example 71, 7-((3′,4-Difluorobiphenyl-3-yl)methoxy)-3H-[1,2,3]triazolo[4,5-b]pyridin-5-amine] belongs 1 to 100 nM. For the compound `Nc1cc(OCc2cccc(-c3cccc(F)c3)c2F)c2nn[nH]c2n1` [Example 72, 7-((2,3′-Difluorobiphenyl-3-yl)methoxy)-3H-[1,2,3]triazolo[4,5-b]pyridin-5-amine], the IC50 fell in the range of 1 to 100 nM. On to `COc1ccccc1-c1ccc(F)c(COc2cc(N)nc3[nH]nnc23)c1F` [Example 73, 7-((2,4-Difluoro-2′-methoxybiphenyl-3-yl)methoxy)-3H-[1,2,3]triazolo[4,5-b]pyridin-5-amine], for which the IC50 fell in the range of 1 to 100 nM.

For `Nc1cc(OCc2cccc(-c3cnn(Cc4ccccc4)c3)c2)c2nn[nH]c2n1` [Example 74, 7-(3-(1-Benzyl-1H-pyrazol-4-yl)benzyloxy)-3H-[1,2,3]triazolo[4,5-b]pyridin-5-amine], the IC50 was in the range of 1 to 100 nM. As for `Nc1cc(OCc2cccc(-c3ccn(Cc4ccccc4)n3)c2)c2nn[nH]c2n1` [Example 75, 7-(3-(1-Benzyl-1H-pyrazol-3-yl)benzyloxy)-3H-[1,2,3]triazolo[4,5-b]pyridin-5-amine], the IC50 is 101 to 999 nM.

For `Cn1nccc1-c1cccc(COc2cc(N)nc3[nH]nnc23)c1` [Example 78, 7-(3-(1-Methyl-1H-pyrazol-5-yl)benzyloxy)-3H-[1,2,3]triazolo[4,5-b]pyridin-5-amine], the IC50 was 1 to 100 nM. Consider `Cn1nc(C(F)(F)F)cc1-c1cccc(COc2cc(N)nc3[nH]nnc23)c1` [Example 79, 7-(3-(1-Methyl-3-(trifluoromethyl)-1H-pyrazol-5-yl)benzyloxy)-3H-[1,2,3]triazolo[4,5-b]pyridin-5-amine], for which the IC50 was in the range of 101 to 999 nM.

In the case of `COc1c(COc2cc(N)nc3[nH]nnc23)cccc1-c1ccn(C)n1` [Example 80, 7-(2-Methoxy-3-(1-methyl-1H-pyrazol-3-yl)benzyloxy)-3H-[1,2,3]triazolo[4,5-b]pyridin-5-amine], the IC50 is 101 to 999 nM.
